Assay results published in ChEMBL document CHEMBL4184238, “Synthesis and biological evaluation of a series of novel pyridinecarboxamides as potential multi-receptor antipsychotic drugs” (Bioorg Med Chem Lett, 2018).
Activity calls are given as the source filed them. The rule behind the calls is not given here.

Tests used:
D(2) dopamine receptor = D(2) dopamine receptor (Homo sapiens, UniProt P14416); assay: Antagonistic activity at human dopamine D2 receptor measured after 60 mins by Lance Ultra cAMP assay; format: functional
Chain of D(2) dopamine receptor (P14416 whole entry): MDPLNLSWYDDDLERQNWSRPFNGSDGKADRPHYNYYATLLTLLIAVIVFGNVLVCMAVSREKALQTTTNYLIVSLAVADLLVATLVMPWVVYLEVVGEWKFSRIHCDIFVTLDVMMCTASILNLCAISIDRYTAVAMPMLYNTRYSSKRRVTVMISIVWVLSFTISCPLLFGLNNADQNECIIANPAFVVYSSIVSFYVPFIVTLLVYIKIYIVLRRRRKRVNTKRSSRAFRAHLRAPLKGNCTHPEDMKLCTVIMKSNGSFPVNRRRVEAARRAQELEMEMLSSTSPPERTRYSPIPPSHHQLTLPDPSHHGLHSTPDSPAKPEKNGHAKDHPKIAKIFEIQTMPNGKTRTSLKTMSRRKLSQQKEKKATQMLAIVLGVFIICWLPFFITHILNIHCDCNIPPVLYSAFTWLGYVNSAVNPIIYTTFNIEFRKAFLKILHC

[1] = target: T1, 5-hydroxytryptamine receptor 1A (Homo sapiens, UniProt P08908); assay: Agonistic activity at human 5-HT1A receptor measured after 60 mins by Ultra Lance cAMP assay; format: functional
T1 sequence (P08908 whole entry): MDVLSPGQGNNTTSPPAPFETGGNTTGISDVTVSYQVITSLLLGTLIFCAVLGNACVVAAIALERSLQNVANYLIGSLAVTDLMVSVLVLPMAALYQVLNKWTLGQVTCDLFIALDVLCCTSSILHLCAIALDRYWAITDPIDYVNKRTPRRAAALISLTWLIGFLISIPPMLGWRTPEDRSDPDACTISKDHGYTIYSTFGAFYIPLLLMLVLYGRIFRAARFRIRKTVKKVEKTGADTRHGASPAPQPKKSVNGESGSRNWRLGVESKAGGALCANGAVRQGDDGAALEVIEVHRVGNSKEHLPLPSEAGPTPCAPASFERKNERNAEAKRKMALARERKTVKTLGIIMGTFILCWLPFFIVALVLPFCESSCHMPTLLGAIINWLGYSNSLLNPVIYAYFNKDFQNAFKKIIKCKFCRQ

[2] = target: 5-hydroxytryptamine receptor 2A (Homo sapiens, UniProt P28223); assay: Antagonistic activity at human 5-HT2A receptor assessed as calcium flux after 10 mins by FLIPR assay; format: functional
Chain of 5-hydroxytryptamine receptor 2A (P28223 whole entry): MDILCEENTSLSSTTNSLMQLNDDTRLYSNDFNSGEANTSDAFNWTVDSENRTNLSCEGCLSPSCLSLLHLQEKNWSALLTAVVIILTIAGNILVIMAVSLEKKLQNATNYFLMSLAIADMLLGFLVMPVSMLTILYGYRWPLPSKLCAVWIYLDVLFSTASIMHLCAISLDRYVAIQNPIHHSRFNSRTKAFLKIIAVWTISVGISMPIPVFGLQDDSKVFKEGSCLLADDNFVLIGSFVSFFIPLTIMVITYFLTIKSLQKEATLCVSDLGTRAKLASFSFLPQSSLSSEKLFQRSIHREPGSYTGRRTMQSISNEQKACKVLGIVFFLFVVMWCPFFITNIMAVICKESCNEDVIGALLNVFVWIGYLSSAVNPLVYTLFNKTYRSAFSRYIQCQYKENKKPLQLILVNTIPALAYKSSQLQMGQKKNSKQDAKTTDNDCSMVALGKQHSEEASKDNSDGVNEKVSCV

[3] = Stability in human liver microsomes assessed as parent compound remaining level at 2 uM in presence of NADPH incubated for 30 mins by LC-MS/MS method; format: ADME, microsome; conditions: read-out: Stability
[4] = target: T2, Alpha-1A adrenergic receptor (Homo sapiens, UniProt P35348); assay: Antagonistic activity at alpha-1A adrenergic receptor (unknown origin) after 10 mins by FLIPR assay; format: functional
T2 sequence (P35348 whole entry): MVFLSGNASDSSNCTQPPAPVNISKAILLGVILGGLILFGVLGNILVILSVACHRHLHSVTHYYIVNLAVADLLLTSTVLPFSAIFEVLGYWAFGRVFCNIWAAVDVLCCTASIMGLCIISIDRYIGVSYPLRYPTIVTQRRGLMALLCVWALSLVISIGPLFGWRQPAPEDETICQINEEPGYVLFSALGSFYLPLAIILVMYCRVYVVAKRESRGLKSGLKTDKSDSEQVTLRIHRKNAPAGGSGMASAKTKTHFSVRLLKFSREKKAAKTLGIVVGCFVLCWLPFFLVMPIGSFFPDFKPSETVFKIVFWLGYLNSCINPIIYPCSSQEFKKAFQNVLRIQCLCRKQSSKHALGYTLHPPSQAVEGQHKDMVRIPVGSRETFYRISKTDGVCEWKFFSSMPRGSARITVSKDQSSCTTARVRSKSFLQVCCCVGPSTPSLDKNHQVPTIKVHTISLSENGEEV

Histamine H1 receptor = Histamine H1 receptor (Homo sapiens, UniProt P35367); assay: Antagonistic activity at histamine 1 receptor (unknown origin) after 10 mins by FLIPR assay; format: functional
Chain of Histamine H1 receptor (P35367 whole entry): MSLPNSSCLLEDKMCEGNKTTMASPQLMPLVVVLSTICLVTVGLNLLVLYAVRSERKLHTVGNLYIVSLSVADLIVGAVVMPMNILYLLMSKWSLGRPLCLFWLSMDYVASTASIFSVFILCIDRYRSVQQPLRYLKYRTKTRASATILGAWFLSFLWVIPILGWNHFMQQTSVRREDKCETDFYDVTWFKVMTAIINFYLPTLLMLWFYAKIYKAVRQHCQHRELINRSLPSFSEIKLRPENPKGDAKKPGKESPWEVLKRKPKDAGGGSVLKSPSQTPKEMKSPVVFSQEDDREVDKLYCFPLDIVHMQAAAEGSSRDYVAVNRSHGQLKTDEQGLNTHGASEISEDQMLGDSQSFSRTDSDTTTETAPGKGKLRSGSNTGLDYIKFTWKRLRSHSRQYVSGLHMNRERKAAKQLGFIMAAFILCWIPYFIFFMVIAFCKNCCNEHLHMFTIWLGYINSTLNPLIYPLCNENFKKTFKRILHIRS

[5] = target: T3, 5-hydroxytryptamine receptor 2C (Homo sapiens, UniProt P28335); assay: Antagonistic activity at 5-HT2c receptor (unknown origin) after 10 mins by FLIPR assay; format: functional
T3 sequence (P28335 whole entry): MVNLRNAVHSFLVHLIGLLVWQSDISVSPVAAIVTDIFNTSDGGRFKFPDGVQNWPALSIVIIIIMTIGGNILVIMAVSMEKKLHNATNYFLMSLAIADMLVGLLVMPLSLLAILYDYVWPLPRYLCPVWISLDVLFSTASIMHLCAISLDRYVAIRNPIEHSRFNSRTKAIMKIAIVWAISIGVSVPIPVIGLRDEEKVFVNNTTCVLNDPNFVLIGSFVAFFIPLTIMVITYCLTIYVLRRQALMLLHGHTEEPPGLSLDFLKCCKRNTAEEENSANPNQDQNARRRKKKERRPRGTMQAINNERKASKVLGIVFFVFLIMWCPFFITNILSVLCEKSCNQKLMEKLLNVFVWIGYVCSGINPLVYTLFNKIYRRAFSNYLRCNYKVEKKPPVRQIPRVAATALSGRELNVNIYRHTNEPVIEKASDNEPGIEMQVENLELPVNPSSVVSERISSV

Mus musculus [6] = assay: Antipsychotic-like activity in ICR mouse assessed as inhibition of PCP-induced hyperlocomotion at 3 mg/kg, ig followed by animal habituation for 10 mins before 60 mins measurement period; format: functional, organism-based
Mus musculus [7] = assay: Antipsychotic-like activity in ICR mouse assessed as inhibition of PCP-induced hyperlocomotion at 0.3 to 3 mg/kg, ig followed by animal habituation for 10 mins before 60 mins measurement period; format: functional, organism-based

Structure (SMILES)	IC50 (D(2) dopamine receptor)	EC50 [1]	IC50 [2]	remaining at 0.5 h, 2 µM [3]	IC50 [4]	IC50 (Histamine H1 receptor)	IC50 [5]	Activity (Mus musculus [6])	Activity (Mus musculus [7])
CNC(=O)c1cc(OCCCCN2CCC(c3noc4cc(F)ccc34)CC2)ccn1	59.8 nM	9 nM	247 nM	98%	11 nM	4420 nM	63 nM		
CNC(=O)c1cc(OCCCCN2CCN(c3nsc4ccccc34)CC2)ccn1	11.4 nM	2.2 nM	113 nM	65%	71 nM	923 nM	70 nM		
CCNC(=O)c1ccnc(OCCCCN2CCC(c3noc4cc(F)ccc34)CC2)c1	65.5 nM	> 100000 nM	67.5 nM						
NC(=O)c1cc(OCCCCN2CCN(c3nsc4ccccc34)CC2)ccn1	42.6 nM	16.5 nM	523 nM						
CCNC(=O)c1cc(OCCCCN2CCC(c3noc4cc(F)ccc34)CC2)ccn1	37.6 nM	17.6 nM	95.5 nM						
CNC(=O)c1cccc(OCCCCN2CCC(c3noc4cc(F)ccc34)CC2)c1				97%					
CNC(=O)c1cccc(OCCCCN2CCC(c3noc4cc(F)ccc34)CC2)n1	9.3 nM	> 100000 nM	134 nM						
O=C1CCc2ccc(OCCCCN3CCN(c4cccc(Cl)c4Cl)CC3)cc2N1								Active	
O=C(NC1CC1)c1cc(OCCCCN2CCN(c3nsc4ccccc34)CC2)ccn1	65.2 nM	6.2 nM	324 nM						
CNC(=O)c1cc(OCCCCN2CCN(c3cccc4sccc34)CC2)ccn1	24 nM	1.2 nM	154 nM	65%	164 nM	418 nM	346 nM	Active	Dose-dependent effect
CNC(=O)c1cc(OCCCCN2CCN(c3cccc(Cl)c3Cl)CC2)ccn1	26.5 nM	0.9 nM	476 nM						
CNC(=O)c1cccc(OCCCCN2CCN(c3cccc4sccc34)CC2)n1	86.1 nM	11.3 nM	106 nM						
O=C(NC1CC1)c1ccnc(OCCCCN2CCC(c3noc4cc(F)ccc34)CC2)c1	51.7 nM	> 100000 nM	53.9 nM						
CNC(=O)c1ccnc(OCCCCN2CCC(c3noc4cc(F)ccc34)CC2)c1	299 nM	> 100000 nM	62.4 nM						

Further lines, with some results ahead:

IC50 (D(2) dopamine receptor)	EC50 [1]	IC50 [2]	remaining at 0.5 h, 2 µM [3]	IC50 [4]	IC50 (Histamine H1 receptor)	IC50 [5]	Structure (SMILES)	Activity (Mus musculus [6])	Activity (Mus musculus [7])
123 nM	> 100000 nM	83.2 nM					CNC(=O)c1cncc(OCCCCN2CCC(c3noc4cc(F)ccc34)CC2)c1		
53.5 nM	28.1 nM	167 nM					O=C(NC1CC1)c1cc(OCCCCN2CCC(c3noc4cc(F)ccc34)CC2)ccn1		
8 nM	0.7 nM	64.9 nM					CNC(=O)c1cc(OCCCCN2CCN(c3cccc4sc(F)cc34)CC2)ccn1		
59 nM	> 100000 nM	94.2 nM					CCNC(=O)c1cncc(OCCCCN2CCC(c3noc4cc(F)ccc34)CC2)c1		
51.1 nM	23.6 nM	910 nM					CNC(=O)c1cccc(OCCCCN2CCN(c3cccc(Cl)c3Cl)CC2)n1		
			25%				CNC(=O)c1cccc(OCCCCN2CCN(c3nsc4ccccc34)CC2)c1		
412 nM	117 nM	1280 nM					CNC(=O)c1cccc(OCCCCN2CCN(c3ccc4ccsc4c3)CC2)n1		
42.5 nM	> 100000 nM	89.9 nM					O=C(NC1CC1)c1cncc(OCCCCN2CCC(c3noc4cc(F)ccc34)CC2)c1		
